In paper PMC9238401, “Peptide Conjugates Derived from flg15, Pep13, and PIP1 That Are Active against Plant-Pathogenic Bacteria and Trigger Plant Defense Responses” (Applied and Environmental Microbiology, 2022):
No end group written: not given here.

Tests used:
horse erythrocytes = conditions: TRIS buffer pH 7.2, 1 h, 37°C, absorbance 540 nm, relative to melittin 100 μM, ± confidence interval (α = 0.05)
Experimental: The toxicity of peptide conjugates to eukaryotic cells was determined as the ability to lyse erythrocytes (Table SB).
The hemolytic activity of the compounds was evaluated by determining hemoglobin release from erythrocyte suspensions of horse blood (5% vol/vol) (Oxoid) as previously described ([45]). Blood was centrifuged at 6000g for 5 min, washed three times with TRIS buffer (10 mM TRIS, 150 mM NaCl, pH 7.2) and diluted 10 times. Compounds were solubilized in TRIS buffer at 750, 500, 300, and 100 μM and mixed with horse erythrocytes (1:1 vol/vol). The mixture was incubated with continuous shaking for 1 h at 37°C. Then, the tubes were centrifuged at 3500g for 10 min, 80-μL aliquots of the supernatant were transferred to 100-well microplates (Bioscreen) and diluted with 80 μL water, and the absorbance measured at 540 nm (Bioscreen). […] The percentage of hemolysis (H) was calculated using the equation H = 100 × ([Op − Ob]/[Om − Ob]), where Op is the density for a given compound concentration, Ob is that for the buffer, and Om is that for the melittin positive control.

tobacco leaves = test: Effect of peptide infiltration on tobacco leaves (phytotoxicity); type: in vivo
Experimental: Peptide conjugates were also assayed for their toxicity in tobacco leaves (Fig. 3, Table SC). After 48 h of infiltration, melittin caused a necrotic area of 0.70 and 2.17 cm in diameter at 50 and 250 μM, respectively. The monomers were not phytotoxic at those concentrations; all of them led to lesions of ≤1.2 cm at 250 μM. All peptide conjugates were also less phytotoxic than melittin, causing necrotic lesions between 0.26 and 1.67 cm in diameter at 250 μM. In particular, 15 of the 30 conjugates led to a necrotic area of <1 cm at this concentration. In general, sequences incorporating BP13 were among the most phytotoxic.
Peptide conjugates were evaluated for their effect on infiltration on tobacco leaves as described previously ([41]). Peptide solutions of 50, 150, and 250 μM were infiltrated (100 μL) into the mesophylls of fully expanded tobacco leaves. Infiltrations were carried out in a single leaf, and for each peptide and dose, at least three leaves randomly distributed in different plants were inoculated. Control infiltrations with water (negative control) or melittin (positive control) at the same molar concentration were performed. The appearance of symptoms on the leaves was followed for 48 h after infiltration and measured as lesion diameter.

[1] = tested on: Xanthomonas fragariae Xf349-9A; test: In vitro growth inhibition (MIC); type: cell-based; conditions: TSB, 25°C, 48 h, OD 600 nm (Bioscreen C), three replicates, experiment repeated twice; MIC given as range
Experimental: (§1) Peptide conjugates were tested for in vitro growth inhibition of the plant-pathogenic bacteria E. amylovora PMV6076, Xanthomonas arboricola pv. pruni CFBP5563, X. fragariae Xf349-9A, X. axonopodis pv. vesicatoria 2133-2, P. syringae pv. actinidiae Psa3700.1.1, and P. syringae pv. syringae EPS94 (Fig. 1, Table SA). The corresponding monomers (flg15, BP13, Pep13, PIP1, BP16, BP100, BP143, BP387, BP475, and KSL-W) were included for comparison.
(§2) The following plant-pathogenic bacterial strains were used: Erwinia amylovora PMV6076 (Institut National de la Recherche Agronomique, Angers, France), Pseudomonas syringae pv. syringae EPS94 (Institut de Tecnologia Agroalimentària, University of Girona, Spain), Xanthomonas axonopodis pv. vesicatoria 2133-2, X. axonopodis pv. vesicatoria Xav206 (Xav) (D. F. Ritchie, Department of Plant Pathology, North Carolina State University), Pseudomonas syringae pv. actinidiae Psa3700.1.1, Xanthomonas fragariae Xf349-9A (Instituto Valenciano de Investigaciones Agrarias, Valencia, Spain), and Xanthomonas arboricola pv. pruni CFBP5563 (Collection Française de Bactéries Associées aux Plantes, Angers, France). All bacteria except for X. fragariae were stored in Luria Bertani (LB) broth supplemented with glycerol (20%) and maintained at −80°C. For X. fragariae, medium B ([80]) was used instead of LB. E. amylovora, X. arboricola pv. pruni, P. syringae pv. syringae, and P. syringae pv. actinidiae were scraped from the agar medium after growing for 24 h at 25°C, and X. axonopodis pv. vesicatoria and X. fragariae, after growing for 48 h at 25°C. The cell material was suspended in sterile water to obtain a suspension of 10^8 CFU mL^−1.
(§3) Lyophilized peptides were solubilized in sterile Milli-Q water to a final concentration of 1 mM and filter-sterilized through a 0.22-μm pore filter. […] Then, 20 μL of each dilution were mixed in a microtiter plate well with 20 μL of the corresponding suspension of the bacterial indicator, 160 μL of Trypticase soy broth (TSB) (bioMérieux, France) to a total volume of 200 μL. Three replicates for each combination of strain, compound, and concentration were used. Microbial growth was determined by optical density measurement at 600 nm (Bioscreen C; Labsystem, Helsinki, Finland). Microplates were incubated at 25°C with 20 s of shaking before hourly absorbance measurement for 48 h. The experiment was repeated twice. The MIC was taken as the lowest compound concentration with no growth at the end of the experiment.

[2] = tested on: Pseudomonas syringae pv. syringae EPS94; test: In vitro growth inhibition (MIC); type: cell-based; conditions: TSB, 25°C, 48 h, OD 600 nm (Bioscreen C), three replicates, experiment repeated twice; MIC given as range
Experimental: as §1, §2, §3

[3] = tested on: Xanthomonas arboricola pv. pruni CFBP5563; test: In vitro growth inhibition (MIC); type: cell-based; conditions: TSB, 25°C, 48 h, OD 600 nm (Bioscreen C), three replicates, experiment repeated twice; MIC given as range
Experimental: as §1, §2, §3

[4] = tested on: Pseudomonas syringae pv. actinidiae Psa3700.1.1; test: In vitro growth inhibition (MIC); type: cell-based; conditions: TSB, 25°C, 48 h, OD 600 nm (Bioscreen C), three replicates, experiment repeated twice; MIC given as range
Experimental: as §1, §2, §3

[5] = tested on: Erwinia amylovora PMV6076; test: In vitro growth inhibition (MIC); type: cell-based; conditions: TSB, 25°C, 48 h, OD 600 nm (Bioscreen C), three replicates, experiment repeated twice; MIC = lowest concentration with no growth, given as range
Experimental: as §1, §2, §3

[6] = tested on: Xanthomonas axonopodis pv. vesicatoria 2133-2; conditions: TSB, 25°C, 48 h, OD 600 nm (Bioscreen C), three replicates, experiment repeated twice; MIC given as range
Excerpt: The corresponding monomers (flg15, BP13, Pep13, PIP1, BP16, BP100, BP143, BP387, BP475, and KSL-W) were included for comparison.
as §2, §3

[7] = 100 μL infiltrated into mesophyll, lesion diameter 48 h after infiltration, at least three leaves, ± confidence interval (α = 0.05)

For `CC[C@H](C)[C@H](NC(=O)[C@H](CCCCN)NC(=O)[C@H](CCCCN)NC(=O)[C@H](Cc1ccccc1)NC(=O)[C@H](CC(C)C)NC(=O)[C@H](CCCCN)NC(=O)[C@@H](N)CCCCN)C(=O)N[C@@H](CC(C)C)C(=O)N[C@@H](CCCCN)C(=O)N[C@@H](Cc1ccc(O)cc1)C(=O)N[C@@H](CC(C)C)C(N)=O` [BP100, reference compound], the “Percent hemolysis at 50 μM” value (horse erythrocytes) was 4 ± 0.5%, the “Percent hemolysis at 150 μM” value (horse erythrocytes) was 7 ± 2% and the “Percent hemolysis at 250 μM” value (horse erythrocytes) was 6 ± 0.3%. The “Percent hemolysis at 375 μM” value (horse erythrocytes) was 11 ± 0.9%, the “Size of the lesions in infiltrated tobacco leaves at 50 μM” value (“Size of the lesions … at 50 μM” for short) (tobacco leaves; [7]) was 0.40 ± 0.03 cm and the “Size of the lesions in infiltrated tobacco leaves at 250 μM” value (from here on “Size of the lesions … at 250 μM”) (tobacco leaves; [7]) was 1.20 ± 0.16 cm.

With melittin [reference compound] the “Size of the lesions … at 50 μM” value (tobacco leaves; [7]) was 0.70 cm and the “Size of the lesions … at 250 μM” value (tobacco leaves; [7]) was 2.17 cm.

For “FKLFKKILKVL-KKLFKKILKYL-NH2 [BP13-BP100, peptide conjugate, BP13 at N-terminus, BP100 at C-terminus]”, the “MIC, Xf” value [1] was 6.2 to 12.5 µM, the “MIC, Pss” value [2] was over 50 µM and the “MIC, Xap” value [3] was 12.5 to 25 µM. For the same compound, the “MIC, Psa” value [4] was 25 to 50 µM, the “MIC, Ea” value [5] was over 50 µM and the “MIC, Xav” value [6] was 12.5 to 25 µM. For the same compound, the “Percent hemolysis at 50 μM” value (horse erythrocytes) was 100 ± 8.3%, the “Percent hemolysis at 150 μM” value (horse erythrocytes) was 100 ± 5.9% and the “Percent hemolysis at 250 μM” value (horse erythrocytes) was 99 ± 7.1%. The “Percent hemolysis at 375 μM” value (horse erythrocytes) was 100 ± 4.8%, the “Size of the lesions … at 50 μM” value (tobacco leaves; [7]) was 0.60 ± 0.30 cm and the “Size of the lesions in infiltrated tobacco leaves at 150 μM” value (shortened to “Size of the lesions … at 150 μM”) (tobacco leaves; [7]) was 1.20 ± 0.17 cm. The “Size of the lesions … at 250 μM” value (tobacco leaves; [7]) was 1.30 ± 0.17 cm.

In the case of “VWNQPVRGFKVYE-OH [Pep13, pathogen-associated molecular pattern (PAMP) from Phytophthora sojae; plant defense elicitor monomer]”, the “MIC, Xf” value [1] is reported as over 50 µM, the “MIC, Pss” value [2] is reported as over 50 µM and the “MIC, Xap” value [3] is reported as over 50 µM. For the same compound, the “MIC, Psa” value [4] was over 50 µM, the “MIC, Ea” value [5] was over 50 µM and the “MIC, Xav” value [6] was over 50 µM. For the same compound, the “Percent hemolysis at 50 μM” value (horse erythrocytes) was 0 ± 0.6%, the “Percent hemolysis at 150 μM” value (horse erythrocytes) was 0 ± 0.3% and the “Percent hemolysis at 250 μM” value (horse erythrocytes) was 2 ± 0.1%. For the same compound, the “Percent hemolysis at 375 μM” value (horse erythrocytes) was 0 ± 0.1%, the “Size of the lesions … at 50 μM” value (tobacco leaves; in vivo) was 0 ± 0 cm and the “Size of the lesions … at 150 μM” value (tobacco leaves; in vivo) was 0 ± 0 cm. For the same compound, the “Size of the lesions … at 250 μM” value (tobacco leaves; in vivo) was 0 ± 0 cm.

With “FKLFKKILKVL-NH2 [BP13, reference compound]” the “MIC, Xf” value [1] was 25 to 50 µM, the “MIC, Pss” value [2] was 12.5 to 25 µM and the “MIC, Xap” value [3] was 6.2 to 12.5 µM. For the same compound, the “MIC, Psa” value [4] was 3.1 to 6.2 µM, the “MIC, Ea” value [5] was 25 to 50 µM and the “MIC, Xav” value [6] was 50 to 100 µM. For the same compound, the “Percent hemolysis at 50 μM” value (horse erythrocytes) was 5 ± 0.2%, the “Percent hemolysis at 150 μM” value (horse erythrocytes) was 13 ± 2% and the “Percent hemolysis at 250 μM” value (horse erythrocytes) was 27 ± 3%. The “Percent hemolysis at 375 μM” value (horse erythrocytes) was 42 ± 3%, the “Size of the lesions … at 50 μM” value (tobacco leaves; [7]) was 0.20 ± 0.24 cm and the “Size of the lesions … at 150 μM” value (tobacco leaves; [7]) was 0.48 ± 0.15 cm. The “Size of the lesions … at 250 μM” value (tobacco leaves; [7]) was 0.96 ± 0.19 cm.

With `CC[C@H](C)[C@H](NC(=O)[C@H](CCCCN)NC(=O)[C@H](CCCCN)NC(=O)[C@@H](Cc1ccccc1)NC(=O)[C@H](CC(C)C)NC(=O)[C@H](CCCCN)NC(=O)[C@@H](N)CCCCN)C(=O)N[C@@H](CC(C)C)C(=O)N[C@@H](CCCCN)C(=O)N[C@@H](Cc1ccc(O)cc1)C(=O)N[C@@H](CC(C)C)C(N)=O` [BP143, reference compound] the “Percent hemolysis at 50 μM” value (horse erythrocytes) was 3 ± 0.6%, the “Percent hemolysis at 150 μM” value (horse erythrocytes) was 4 ± 0.6% and the “Percent hemolysis at 250 μM” value (horse erythrocytes) was 6 ± 0.3%. The “Percent hemolysis at 375 μM” value (horse erythrocytes) was 7 ± 0.3%, the “Size of the lesions … at 50 μM” value (tobacco leaves; [7]) was 0.10 ± 0.12 cm and the “Size of the lesions … at 150 μM” value (tobacco leaves; [7]) was 0.37 ± 0.15 cm. For the same compound, the “Size of the lesions … at 250 μM” value (tobacco leaves; [7]) was 0.65 ± 0.11 cm.

For “KKVVFWVKFK-NH2 [KSL-W, reference compound]”, the “Percent hemolysis at 50 μM” value (horse erythrocytes) was 4 ± 1%, the “Percent hemolysis at 150 μM” value (horse erythrocytes) was 5 ± 0.2% and the “Percent hemolysis at 250 μM” value (horse erythrocytes) was 6 ± 1%. The “Percent hemolysis at 375 μM” value (horse erythrocytes) was 20 ± 2%, the “Size of the lesions … at 50 μM” value (tobacco leaves; [7]) was 0 ± 0 cm and the “Size of the lesions … at 150 μM” value (tobacco leaves; [7]) was 0.37 ± 0.97 cm. The “Size of the lesions … at 250 μM” value (tobacco leaves; [7]) was 0.62 ± 0.45 cm.

`CC[C@H](C)[C@H](NC(=O)[C@H](CCCCN)NC(=O)[C@H](CCCCN)NC(=O)[C@H](Cc1ccccc1)NC(=O)[C@H](CC(C)C)NC(=O)[C@H](CCCCN)NC(=O)[C@@H](N)CCCCN)C(=O)N[C@@H](CC(C)C)C(=O)N[C@@H](CCCCN)C(=O)N[C@@H](CCCCN)C(=O)N[C@@H](CC(C)C)C(N)=O` [BP16, reference compound] was tested, and the “Percent hemolysis at 50 μM” value (horse erythrocytes) was 2 ± 1%, the “Percent hemolysis at 150 μM” value (horse erythrocytes) was 1 ± 0.6% and the “Percent hemolysis at 250 μM” value (horse erythrocytes) was 1 ± 0.4%. For the same compound, the “Percent hemolysis at 375 μM” value (horse erythrocytes) was 3 ± 3%, the “Size of the lesions … at 50 μM” value (tobacco leaves; [7]) was 0.08 ± 0.11 cm and the “Size of the lesions … at 150 μM” value (tobacco leaves; [7]) was 0.16 ± 0.16 cm. The “Size of the lesions … at 250 μM” value (tobacco leaves; [7]) was 0.26 ± 0.08 cm.
